# Data reported in paper PMC12752747, “ENT3: A lysosomal urate transporter regulating urate disposition and macrophage inflammation” (iScience, 2025).
# T1: ENT3 (equilibrative nucleoside transporter 3), ENT3-AA construct (Homo sapiens, UniProt Q9BZD2, L31A/L32A)
# T1 construct: gene SLC29A3; ENT3-AA: full-length ENT3 redirected to the plasma membrane, dileucine L31L32 replaced with A31A32
# T1 sequence (Q9BZD2 1-475 L31A/L32A): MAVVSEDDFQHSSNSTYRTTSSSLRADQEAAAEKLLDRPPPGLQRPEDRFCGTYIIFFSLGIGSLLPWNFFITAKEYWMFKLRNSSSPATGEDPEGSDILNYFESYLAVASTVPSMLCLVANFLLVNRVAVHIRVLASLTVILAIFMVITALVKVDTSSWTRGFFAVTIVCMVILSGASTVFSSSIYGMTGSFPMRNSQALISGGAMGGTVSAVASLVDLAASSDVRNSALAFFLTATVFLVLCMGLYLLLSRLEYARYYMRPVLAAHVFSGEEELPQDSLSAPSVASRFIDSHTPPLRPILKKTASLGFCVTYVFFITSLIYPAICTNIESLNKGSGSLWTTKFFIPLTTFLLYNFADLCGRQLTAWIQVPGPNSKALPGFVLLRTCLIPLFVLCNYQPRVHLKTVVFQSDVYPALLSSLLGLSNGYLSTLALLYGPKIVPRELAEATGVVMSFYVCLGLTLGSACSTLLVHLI
# Columns and labels:
# [1] = biological target: T1, ENT3 (equilibrative nucleoside transporter 3), ENT3-AA construct; assay: inhibition of […]urate ([…]) uptake in HEK293 cells transiently expressing ENT3-AA, pH […]; type: cell-based
# [2] = substrate: O=c1[nH]c(=O)c2[nH]c(=O)[nH]c2[nH]1; assay: cells, lysate or membranes; type: cell-based, Homo sapiens; conditions: proton-coupled transport
IC50 [1],Molecule,Km [2]
21.7 µM,O=[N+]([O-])c1ccc(CSc2ncnc3c2ncn3C2OC(CO)C(O)C2O)cc1 (stereo not drawn) [nitrobenzylthioinosine],–
7.71 µM,OCCN(CCO)c1nc(N2CCCCC2)c2nc(N(CCO)CCO)nc(N3CCCCC3)c2n1 [dipyridamole],–
–,"ENT3 (equilibrative nucleoside transporter 3), ENT3-AA construct (Homo sapiens; L31A/L32A) (protein, ENT3-AA: full-length ENT3 redirected to the plasma membrane, dileucine L31L32 replaced with A31A32) MAVVSEDDFQHSSNSTYRTTSSSLRADQEAAAEKLLDRPPPGLQRPEDRFCGTYIIFFSLGIGSLLPWNFFITAKEYWMFKLRNSSSPATGEDPEGSDILNYFESYLAVASTVPSMLCLVANFLLVNRVAVHIRVLASLTVILAIFMVITALVKVDTSSWTRGFFAVTIVCMVILSGASTVFSSSIYGMTGSFPMRNSQALISGGAMGGTVSAVASLVDLAASSDVRNSALAFFLTATVFLVLCMGLYLLLSRLEYARYYMRPVLAAHVFSGEEELPQDSLSAPSVASRFIDSHTPPLRPILKKTASLGFCVTYVFFITSLIYPAICTNIESLNKGSGSLWTTKFFIPLTTFLLYNFADLCGRQLTAWIQVPGPNSKALPGFVLLRTCLIPLFVLCNYQPRVHLKTVVFQSDVYPALLSSLLGLSNGYLSTLALLYGPKIVPRELAEATGVVMSFYVCLGLTLGSACSTLLVHLI",1150 µM
